Data as given in PubChem BioAssay (NCI).
“And” between values parts separate entries of the source, which are not always exact repeats. Equal values may be shown once.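 Cells were grown in 96-well plates and exposed to each compound for 48 hours at five concentrations; endpoints were interpolated linearly between bracketing concentrations, or set to the highest concentration if not reached. GI50 is the concentration that inhibits growth by half. Definition used: TGI = concentration required for complete inhibition of growth.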

Legend:
Experiment in all cases: DTP human tumour cell line panel, 48 h
CCRF-CEM leukemia = system: CCRF-CEM leukemia
HL-60(TB) leukemia = system: HL-60(TB) leukemia
HOP-62 NSCLC = system: HOP-62 NSCLC
HT29 colon = system: HT29 colon
MCF7 breast = system: MCF7 breast
MOLT-4 leukemia = system: MOLT-4 leukemia
NCI-H226 lung = system: NCI-H226 lung
OVCAR-5 ovarian = system: OVCAR-5 ovarian
SW-620 colon = system: SW-620 colon
T-47D breast = system: T-47D breast

Row | Structure (SMILES) | GI50 (CCRF-CEM leukemia) | TGI (CCRF-CEM leukemia) | GI50 (HL-60(TB) leukemia) | TGI (HL-60(TB) leukemia) | GI50 (HOP-62 NSCLC) | TGI (HOP-62 NSCLC) | GI50 (HT29 colon) | TGI (HT29 colon) | GI50 (MCF7 breast) | TGI (MCF7 breast) | GI50 (MOLT-4 leukemia) | TGI (MOLT-4 leukemia) | GI50 (NCI-H226 lung) | TGI (NCI-H226 lung) | GI50 (OVCAR-5 ovarian) | TGI (OVCAR-5 ovarian) | GI50 (SW-620 colon) | TGI (SW-620 colon) | GI50 (T-47D breast) | TGI (T-47D breast)
1 | COc1ccc(-c2cc(/C=C/C(=O)c3ccc(N)cc3)[nH]n2)cc1 | 1.32 µM | 4.91 µM | 1.43 µM | 7.71 µM | 2.8 µM | 7.49 µM | 2.75 µM | 8.11 µM | 0.708 µM | 3.84 µM | 2.32 µM | 9.48 µM | 2.05 µM | 5.57 µM | 2.06 µM | 4.92 µM | 1.69 µM | 5.41 µM | 1.47 µM | 9.77 µM
2 | O=CN1N=C(c2cccc(Nc3ccnc4cc(Cl)ccc34)c2)CC1c1ccc(Cl)cc1 (configuration not stated) | 2.34 µM | > 100 µM | 1.1 µM | 3.81 µM | 1.91 µM | > 100 µM | 0.477 µM | 3.65 µM | 0.81 µM | > 100 µM | 1.92 µM | 80.3 µM | > 100 µM | > 100 µM | > 100 µM | > 100 µM | 0.557 µM | > 100 µM | 2.63 µM | > 100 µM
3 | COc1cc(-c2nn(-c3cccc(NC(=O)CCNc4ccc(N5CCOCC5)cc4)c3)cc2-c2ccncc2)ccc1Cl | 2.95 µM | > 100 µM | 3.71 µM | > 100 µM | 3.48 µM | 22.3 µM | 2.84 µM | 33.4 µM | 2.47 µM | 11.5 µM | 1.6 µM | 6.98 µM | 2.89 µM | 27.8 µM | 3.43 µM | > 100 µM | 3.55 µM | > 100 µM | 1.99 µM | 7.91 µM
4 | CCOC(=O)/C(=C\c1ccc2ccccc2c1)P(=O)(OCC)OCC | 1.89 µM | 6.51 µM | 2.15 µM | 5.16 µM | 2.61 µM | 7.24 µM | 2.8 µM | 8.18 µM | 2.14 µM | 7.12 µM | 2.16 µM | 6.25 µM | 2.39 µM | 5.88 µM | 3.95 µM | 13.9 µM | 2.81 µM | 10.4 µM | 2.55 µM | 9.09 µM
5 | NCCCN=c1ccc2c3c1c(O)c1c(O)ccc(=O)c1c3[nH]n2CCNCCO | 0.583 µM and 0.478 µM | 8.77 µM and 28.3 µM | 0.665 µM and 0.556 µM | 1.7 µM and 9.33 µM | 0.484 µM | 11.1 µM and 9.68 µM | 3.08 µM | 11.9 µM and 21.7 µM | 0.796 µM | 21.5 µM and 11.2 µM | 0.343 µM | 7.68 µM and 19.4 µM | 1.05 µM | 7.05 µM and 10.7 µM | – | 17.4 µM and 17.2 µM | – | 9.98 µM and 40.5 µM | – | 15.8 µM
6 | COc1cc2ncnc(Oc3cccc(NC(=O)Nc4cc(C(C)(C)C(F)(F)F)on4)c3)c2cc1OC | 3.06 µM and 3.26 µM | > 100 µM | 2.7 µM and 0.816 µM | > 28.5 µM | 2.45 µM and 2.53 µM | 16.8 µM and > 10 µM | 0.197 µM and 0.215 µM | 6.9 µM and > 10 µM | 2.79 µM and 3.18 µM | 15 µM and > 10 µM | 2.46 µM and 2.06 µM | > 29.7 µM | 1.13 µM and 1.67 µM | 33.7 µM and > 10 µM | 1.1 µM and 1.01 µM | 10.5 µM and > 10 µM | 1.21 µM and 1.6 µM | 20.8 µM and > 10 µM | 1.96 µM and 1.67 µM | 11.7 µM and > 10 µM
